Measured values taken from article PMC10421868, “The acquisition order of leukemic drug resistance mutations is directed by the selective fitness associated with each resistance mechanism” (Scientific Reports, 2023).
One block for each compound: values may come before it.

What was measured:
[1] = biological target: BCR::ABL1 kinase activity (Homo sapiens, UniProt P00519+P11274)
Protocol: Western blotting for phosphorylated CT10 regulator of kinase-like (p-CrkL) was performed as previously described.

[2] = tested on: Chronic Myeloid Leukemia patients; conditions: CML patients; cited from earlier work
K562 and K562 DasR cells = experiment: Intracellular uptake and retention (IUR) assay; assay type: in vitro ADME; conditions: 2 μM C14-dasatinib, 2 h, 37 °C
Protocol: To determine the quantity of intracellular dasatinib in leukemic cells, and the dasatinib transport functionality of ABCG2, the intracellular uptake and retention (IUR) assay was performed as previously described. K562 and K562 DasR cells were washed and incubated with 0 or 2 μM C^14-dasatinib kindly provided by Bristol Myers Squibb (New York, NY), in the presence or absence of 0.5 μM Ko143. This was performed using 2 × 10^5 cells in 2 mL of RPMI-1640 + 10% FCS, for 2 h at 37 °C. Following incubation, cells were pelleted by centrifugation for 5 min at 6800 rpm then 30 s at 13,000 rpm. Radioactivity of C^14-dasatinib was determined independently in the supernatant and cell pellet using a Tri-Carb 2810R Liquid Scintillation Counter (Perkin Elmer, Inc., Waltham, MA). The IUR was reported as ng of dasatinib incorporated per 200,000 cells. Results are expressed as paired –/ + Ko143 samples.

BCR::ABL1 kinase activity, sequence (P11274+P00519 fused): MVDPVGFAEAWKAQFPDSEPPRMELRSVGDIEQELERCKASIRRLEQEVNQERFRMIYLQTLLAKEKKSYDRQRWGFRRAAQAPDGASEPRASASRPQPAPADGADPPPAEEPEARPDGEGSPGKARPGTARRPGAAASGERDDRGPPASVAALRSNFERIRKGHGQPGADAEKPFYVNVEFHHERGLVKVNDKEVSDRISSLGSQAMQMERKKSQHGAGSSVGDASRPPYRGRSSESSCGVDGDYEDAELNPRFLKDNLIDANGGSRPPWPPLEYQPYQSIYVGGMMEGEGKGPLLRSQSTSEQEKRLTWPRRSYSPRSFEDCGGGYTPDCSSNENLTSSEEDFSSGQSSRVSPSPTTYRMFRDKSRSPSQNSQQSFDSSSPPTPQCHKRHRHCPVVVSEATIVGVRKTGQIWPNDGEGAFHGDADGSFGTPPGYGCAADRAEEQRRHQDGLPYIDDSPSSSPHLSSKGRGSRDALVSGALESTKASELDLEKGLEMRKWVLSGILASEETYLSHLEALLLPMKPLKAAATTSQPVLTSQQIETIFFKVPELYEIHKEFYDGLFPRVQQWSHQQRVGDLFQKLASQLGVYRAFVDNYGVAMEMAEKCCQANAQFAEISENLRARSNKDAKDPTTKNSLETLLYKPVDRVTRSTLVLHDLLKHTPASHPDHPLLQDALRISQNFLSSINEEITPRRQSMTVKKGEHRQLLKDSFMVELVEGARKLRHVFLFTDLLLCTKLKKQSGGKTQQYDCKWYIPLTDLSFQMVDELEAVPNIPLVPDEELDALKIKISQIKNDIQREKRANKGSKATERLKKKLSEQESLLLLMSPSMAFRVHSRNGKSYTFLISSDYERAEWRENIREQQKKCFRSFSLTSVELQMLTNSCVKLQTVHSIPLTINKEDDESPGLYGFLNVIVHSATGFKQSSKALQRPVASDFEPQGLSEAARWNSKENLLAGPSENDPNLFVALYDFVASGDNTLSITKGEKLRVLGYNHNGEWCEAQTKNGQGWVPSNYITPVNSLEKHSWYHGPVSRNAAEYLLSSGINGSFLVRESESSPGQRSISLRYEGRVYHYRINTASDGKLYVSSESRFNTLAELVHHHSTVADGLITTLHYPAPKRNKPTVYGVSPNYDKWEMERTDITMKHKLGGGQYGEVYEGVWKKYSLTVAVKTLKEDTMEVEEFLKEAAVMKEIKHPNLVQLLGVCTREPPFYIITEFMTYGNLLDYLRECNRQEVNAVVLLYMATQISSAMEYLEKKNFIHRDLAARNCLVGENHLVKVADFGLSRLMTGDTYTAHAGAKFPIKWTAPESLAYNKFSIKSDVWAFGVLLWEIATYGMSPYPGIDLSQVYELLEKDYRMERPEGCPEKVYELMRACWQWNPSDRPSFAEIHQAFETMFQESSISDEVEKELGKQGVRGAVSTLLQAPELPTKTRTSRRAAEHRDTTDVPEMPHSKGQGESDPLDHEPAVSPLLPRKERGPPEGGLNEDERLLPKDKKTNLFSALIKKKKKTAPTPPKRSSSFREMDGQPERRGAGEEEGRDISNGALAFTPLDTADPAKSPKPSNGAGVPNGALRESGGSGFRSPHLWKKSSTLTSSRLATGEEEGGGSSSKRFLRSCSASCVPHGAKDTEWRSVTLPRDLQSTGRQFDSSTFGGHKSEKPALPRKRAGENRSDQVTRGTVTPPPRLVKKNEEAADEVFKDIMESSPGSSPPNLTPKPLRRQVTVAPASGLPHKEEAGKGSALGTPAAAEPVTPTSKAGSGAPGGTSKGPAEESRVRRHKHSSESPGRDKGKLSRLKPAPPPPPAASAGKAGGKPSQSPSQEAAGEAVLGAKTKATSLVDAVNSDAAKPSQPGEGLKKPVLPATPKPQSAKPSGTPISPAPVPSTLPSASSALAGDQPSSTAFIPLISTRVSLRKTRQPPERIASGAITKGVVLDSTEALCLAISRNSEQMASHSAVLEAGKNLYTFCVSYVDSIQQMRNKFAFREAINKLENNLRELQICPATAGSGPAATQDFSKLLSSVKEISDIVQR

Compound: COc1ccc2c3c([nH]c2c1)[C@H](CC(C)C)N1C(=O)[C@H](CCC(=O)OC(C)(C)C)NC(=O)[C@@H]1C3 [Ko143]
Effect of addition of Ko143 on dasatinib IC50 ([1]; K562 25, 50 and 200 nM DasR lines): no effect
Effect of Ko143 on ponatinib IC50 ([1]; K562 later stage DasR intermediates with lower ABCG2 expression, and DMSO control line): no significant change

Compound: COc1cc(Nc2c(C#N)cnc3cc(OCCCN4CCN(C)CC4)c(OC)cc23)c(Cl)cc1Cl [bosutinib]
Suboptimal response, share of treated patients [2]: < 10%

Intracellular dasatinib (IUR) (K562 and K562 DasR cells; K562 15 nM DasR cells, with 0.5 μM Ko143): 19.39 ng/200,000 cells
Dasatinib uptake (IUR) (K562 and K562 DasR cells; K562 15 nM DasR cells, without Ko143): 12.15 ng/200,000 cells
Dasatinib uptake (IUR) (K562 and K562 DasR cells; K562 control, with 0.5 μM Ko143): 22.07 ng/200,000 cells
Dasatinib uptake (IUR) (K562 and K562 DasR cells; K562 control, without Ko143): 24.56 ng/200,000 cells
Compound: Cc1nc(Nc2ncc(C(=O)Nc3c(C)cccc3Cl)s2)cc(N2CCN(CCO)CC2)n1 [dasatinib]
Suboptimal response, share of treated patients [2]: < 10%

Compound: Cc1ccc(NC(=O)c2ccc(CN3CCN(C)CC3)cc2)cc1Nc1nccc(-c2cccnc2)n1 [imatinib]
10 year survival rate [2]: over 83%
Suboptimal response, share of treated patients [2]: 10–15%

Compound: Cc1cn(-c2cc(NC(=O)c3ccc(C)c(Nc4nccc(-c5cccnc5)n4)c3)cc(C(F)(F)F)c2)cn1 [nilotinib]
Suboptimal response, share of treated patients [2]: < 10%
